Test results taken from patent US20150203561A1, “BETA THYMOSIN FRAGMENTS” (REGENERX BIOPHARMACEUTICALS, INC., priority 2008, published 2015).
“Also recorded” adds a separate entry of the source. Each block holds one substance with its values, some of them ahead of it.

Assays:
human dermal fibroblasts [1] = assay: Collagen secretion, colorimetric assay; format: cell-based; design: key to Stimulates collagens / Inhibits collagens: P = active; U = useful; settings: summary of peptide uses
Description: (§1) Effect of Tb4 and peptides on collagen secretion • Human dermal fibroblasts (Fb) were cultured to 80% confluence • Cells were treated with 1 μg/ml Tb4 or peptides for 24, 48, or 72 hours. Cells were treated once/day. • Culture supernatants (n=3, experiments repeated 5 times) were assayed for collagen secretion using a colorimetric assay that detects collagen types I, II, III, IV and V, and possibly VII

T-lymphocyte = assay: Impaired T-lymphocyte blastogenic response (summary table); design: key: P = active; U = useful; settings: summary of peptide uses
L1 = assay: Stimulation of L1 production (summary table); design: key: P = active; U = useful; settings: summary of peptide uses
[2] = tested on: tissue damage caused by UV radiation; assay: UV radiation tissue damage (summary table); design: key: P = active; U = useful; settings: summary of peptide uses
neuron survival = assay: Promotion of neuron survival (summary table); design: key: P = active; U = useful; settings: summary of peptide uses
human dermal fibroblasts [3] = assay: Elastin secretion, colorimetric assay; format: cell-based; design: key to Stimulates Elastin: P = active; U = useful; settings: for Stimulates Elastin: summary of peptide uses
Description: as §1, with “elastin” for “collagen”, “6” for “5”, “• Data was analyzed using the t-test” for “that detects collagen types I, II, III, IV and V, and possibly VII”

IKKb = target: T1, IKKb (Homo sapiens, UniProt O14920); assay: Cell-free IkBa phosphorylation ELISA (NFkB signaling pathway); format: biochemical; design: key to Inhibits IkBa phosphorylation: P = active; U = useful; settings: summary of peptide uses
T1 sequence (O14920 1-756): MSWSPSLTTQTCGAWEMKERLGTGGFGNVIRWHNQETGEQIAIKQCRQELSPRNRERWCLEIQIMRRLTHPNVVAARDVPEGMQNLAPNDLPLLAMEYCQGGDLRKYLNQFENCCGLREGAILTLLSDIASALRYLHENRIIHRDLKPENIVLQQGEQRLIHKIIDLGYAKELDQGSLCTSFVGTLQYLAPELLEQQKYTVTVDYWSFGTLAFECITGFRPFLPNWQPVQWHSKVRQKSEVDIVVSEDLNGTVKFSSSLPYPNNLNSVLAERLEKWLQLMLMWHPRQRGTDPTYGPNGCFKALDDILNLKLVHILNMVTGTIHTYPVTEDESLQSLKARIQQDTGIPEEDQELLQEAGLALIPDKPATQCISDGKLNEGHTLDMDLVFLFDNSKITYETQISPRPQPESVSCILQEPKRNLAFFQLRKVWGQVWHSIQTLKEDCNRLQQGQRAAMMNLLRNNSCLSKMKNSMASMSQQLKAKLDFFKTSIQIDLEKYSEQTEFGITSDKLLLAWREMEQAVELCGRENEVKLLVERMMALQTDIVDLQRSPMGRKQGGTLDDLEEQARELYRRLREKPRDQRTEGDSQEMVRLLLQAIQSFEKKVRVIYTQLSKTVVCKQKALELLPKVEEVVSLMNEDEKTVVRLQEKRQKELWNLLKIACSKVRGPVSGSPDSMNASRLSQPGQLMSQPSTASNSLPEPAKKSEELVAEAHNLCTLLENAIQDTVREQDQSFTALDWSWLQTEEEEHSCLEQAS
Description: Effect of Tb4 and peptides on the NFkB signaling pathway • Cell-free assay • Prepared 1.0, 0.1, and 0.01 ng/ml solutions of Tb4 or peptides in kinase buffer supplied with kit • Added 10 μl of the solutions to wells of a 96-well plate coated with lkBa • IKKb (20 mU) was added to wells • 90 μl kinase reaction buffer (containing ATP) was added to the wells • ELISA to detect phosphorylated lkBa

neurite outgrowth = assay: Promotion of neurite outgrowth (summary table); design: key: P = active; U = useful; settings: summary of peptide uses
dermal Fb = assay: TNF-a-stimulated IL-8 secretion ELISA, dermal fibroblasts; format: cell-based, human; settings: 1 μg/ml, 10 ng/ml TNF-a
Description: (§2) Analysis of IL-8 Secretion • Human corneal epithelial cells or dermal Fb were cultured to 80% confluence • Cells were pre-treated with 1 μg/ml Tb4 or peptides for one hour • Cells were stimulated with 10 ng/ml TNF-a in the presence or absence of Tb4 or peptides • Culture medium was analyzed for secreted IL-8 by ELISA (n=3, experiments repeated twice) • Data was analyzed using the t-test

cell migration = assay: Stimulation of migration (summary table); format: cell-based; design: key: P = active; U = useful; settings: summary of peptide uses
[4] = tested on: TNF-a-stimulated IL8 secretion; assay: Suppression of inflammation (summary table; IL-8 secretion); format: cell-based, human; design: key: P = active; U = useful; settings: summary of peptide uses
Description: as §2

[5] = tested on: Human corneal epithelial cells; assay: TNF-a-stimulated IL-8 secretion ELISA, corneal epithelial cells; format: cell-based; settings: 1 μg/ml, 10 ng/ml TNF-a
Description: as §2

human dermal Fb = assay: CHX-induced apoptosis (APOPercentage dye) in human dermal Fb; format: cell-based; design: key to Inhibits apoptosis: P = active; U = useful; settings: for Protection of dermal Fb against CHX-induced apoptosis: 1 μg/ml, 0.002% CHX for 2 hours; for Inhibits apoptosis: summary of peptide uses
Description: Effect of Tb4 and Peptide 3A on CHX-induced apoptosis • Human dermal Fb were cultured to 80% confluence • Fb were treated with 0.002% CHX+1 μg/ml Tb4 or peptide 3A, 4A or 6A for 1.5 hours • APOPercentage “dye” was added to the Fb cultures at a 1:50 dilution for an additional 30 minutes • Excess dye was washed from the cells, and digital images were captured. Cells dyed red were apoptotic • Adobe Photoshop was used to calculate the number of red pixels in six digitized images for each treatment • Statistical analysis was done using the t-test

[6] = tested on: human gingival fibroblasts; assay: CHX-induced cytotoxicity in human gingival fibroblasts; format: cell-based
[7] = tested on: human gingival fibroblasts; assay: CHX-induced apoptosis in human gingival fibroblasts; format: cell-based; settings: 0.002% CHX for 2 hours
human dermal fibroblasts [8] = assay: LDH cytotoxicity assay in human dermal fibroblasts exposed to cytotoxic agents; format: cell-based; design: key to Protects from cytotoxicity: P = active; U = useful; settings: for Protects from cytotoxicity: summary of peptide uses
Description: Dose Response Analysis of Peptide 3A • Human dermal fibroblasts (Fb, Cascade Biologics, OR) were cultured to 80% confluence • 2 ml CHX (0.002%) in basal medium ±1 μg/ml Tb4 or 1.0, 0.1, 0.01, or 0.001 μg/ml peptide 3A was added to Fb for 1, 2, 3, or 4 hours • 100 μl culture medium (n=4) was added to 100 μl LDH reagent and incubated at room temperature for 20 minutes • OD500 nm was read and averages ±SEM were calculated • Data was analyzed with probability of p≦0.05

[9] = tested on: Transformed human corneal epithelial cells (HCET); assay: Collagen type IV secretion ELISA; format: cell-based; design: key to Stimulates collagen IV: P = active; U = useful; settings: summary of peptide uses
Description: Effect of Tb4 and peptides on collagen type IV secretion • Transformed human corneal epithelial cells (HCET) were cultured to 80% confluence • Cells were treated with 1 μg/ml Tb4 or peptides for 24 hours • Culture supernatant samples (n=3 per experiment, total of 4 experiments) were analyzed using a collagen type IV ELISA • Data was analyzed using the t-test

[10] = tested on: p65 subunit of NFkB in human corneal epithelial cells; assay: NFkB nuclear translocation; format: cell-based; design: key: P = active; U = useful; settings: summary of peptide uses
Description: Analysis of NFkB Nuclear Translocation • Human corneal epithelial cells were cultured to 80% confluence • Cells were pre-treated with 1 μg/ml Tb4 or peptide 4A or 6A for one hour • Cells were stimulated with 10 ng/ml TNF-a in the presence or absence of Tb4 or peptides for 15 minutes • Cells were fixed and labeled with antibodies to the p65 subunit of NFkB

[11] = 1 μg/ml, 0.002% CHX, 1, 2, or 3 hours exposure
[12] = 1 μg/ml, 0.002% CHX, 2 hour exposure

Inhibits IkBa phosphorylation (IKKb): U
Substance: Ac-Leu-Lys-Lys-Thr-Glu-Thr-Gln-Glu-Lys-Asn-Pro-Leu-Pro-Ser-Lys-Glu-Thr-Ile-Glu-Gln-Glu-Lys-Gln-Ala-Gly-Glu-Ser-OH (Ac-LKKTETQEKNPLPSKETIEQEKQAGES-OH) [Fragment Db]
Inhibits collagens (human dermal fibroblasts [1]): U | Restores impaired T-lymphocyte blastogenic response (T-lymphocyte): U | Stimulates L1 production (L1): U | Inhibits tissue damage caused by UV radiation [2]: U | Protects tissue from UV radiation damage [2]: U | Promotes neuron survival (neuron survival): U | Stimulates Elastin (human dermal fibroblasts [3]): U | Promotes neurite outgrowth (neurite outgrowth): U

Substance: Ac-Ser-Asp-Lys-Pro-OH (Ac-SDKP-OH) [Peptide 2B]
Suppression of TNF-a-stimulated IL8 secretion (dermal Fb): suppress | Stimulates L1 production (L1): U | Inhibits tissue damage caused by UV radiation [2]: U | Protects tissue from UV radiation damage [2]: U | Promotes neuron survival (neuron survival): U | Stimulates Migration (cell migration): P | Suppresses inflammation [4]: P | Promotes neurite outgrowth (neurite outgrowth): U

Inhibits IkBa phosphorylation (IKKb): U
Substance: H-Leu-Lys-Lys-Thr-Glu-Thr-Gln-Glu-Lys-Asn-Pro-Leu-Pro-Ser-Lys-Glu-Thr-Ile-Glu-Gln-Glu-Lys-Gln-Ala-Gly-Glu-Ser-OH (H-LKKTETQEKNPLPSKETIEQEKQAGES-OH) [Fragment Da]
Inhibits collagens (human dermal fibroblasts [1]): U | Restores impaired T-lymphocyte blastogenic response (T-lymphocyte): U | Stimulates L1 production (L1): U | Inhibits tissue damage caused by UV radiation [2]: U | Protects tissue from UV radiation damage [2]: U | Promotes neuron survival (neuron survival): U | Stimulates Elastin (human dermal fibroblasts [3]): U | Promotes neurite outgrowth (neurite outgrowth): U

Substance: H-Leu-Lys-Lys-Thr-Glu-Thr-OH (H-LKKTET-OH) [Peptide 1A]
Stimulates L1 production (L1): U | Inhibits tissue damage caused by UV radiation [2]: U | Protects tissue from UV radiation damage [2]: U | Promotes neuron survival (neuron survival): U | Suppresses inflammation [4]: P | Promotes neurite outgrowth (neurite outgrowth): U | Suppression of TNF-a-stimulated IL8 secretion [5]: suppress

Substance: H-SDKPDMAEIEKFDKS-OH [Peptide 3A]
Protection of dermal Fb against CHX-induced apoptosis (human dermal Fb): protect; also recorded: can inhibit | Inhibits apoptosis (human dermal Fb): P | Protection of gingival Fb against cytotoxicity induced by CHX ([6]; 0.002% CHX): protects | Inhibition of chlorhexidine digluconate and Peridex induced cytotoxicity ([6]; cultured human gingival fibroblasts, Peridex diluted to 0.002% CHX): can inhibit | Suppression of TNF-a-stimulated IL8 secretion (dermal Fb): suppress | Stimulates L1 production (L1): U | Inhibits tissue damage caused by UV radiation [2]: U | Protects tissue from UV radiation damage [2]: U | Promotes neuron survival (neuron survival): U | Suppresses inflammation [4]: P | Protection of gingival Fb against CHX-induced apoptosis [7]: protect; also recorded: can inhibit | Promotes neurite outgrowth (neurite outgrowth): U | Protection of Fb against the cytotoxic effects of CHX (LDH), dose response analysis (human dermal fibroblasts [8]; 1.0 μg/ml peptide, 0.002% CHX, 2 hours): protects | Protection of Fb against the cytotoxic effects of CHX (LDH) (human dermal fibroblasts [8]; [11]): protect | Protection of Fb against the cytotoxic effects of CHX (LDH) (human dermal fibroblasts [8]; [12]): protect | Protection of Fb against the cytotoxic effects of CHX (LDH) (human dermal fibroblasts [8]; 0.002% and 0.005% CHX, 2 hours exposure): protects | Protection of Fb against the cytotoxic effects of benzalkonium chloride (LDH) (human dermal fibroblasts [8]; 0.01% benzalkonium chloride): protects | Protection of Fb against the cytotoxic effects of hydrogen peroxide (LDH) (human dermal fibroblasts [8]; 1% hydrogen peroxide): protects | Protection of Fb against the cytotoxic effects of ethanol (LDH) (human dermal fibroblasts [8]; 10% ethanol): does not protect | Inhibition of chlorhexidine digluconate, hydrogen peroxide, and benzalkonium chloride-induced cytotoxicity (human dermal fibroblasts [8]; cultured human dermal fibroblasts, up to 4 hours exposure): can inhibit | Protects from cytotoxicity (human dermal fibroblasts [8]): P

Substance: H-SDKPDMAEIEKFDKSKLKKTET-OH [Fragment Aa]
Inhibits collagens (human dermal fibroblasts [1]): U | Inhibits apoptosis (human dermal Fb): U | Stimulates collagen IV [9]: U | Stimulates L1 production (L1): U | Inhibits tissue damage caused by UV radiation [2]: U | Protects tissue from UV radiation damage [2]: U | Promotes neuron survival (neuron survival): U | Stimulates Elastin (human dermal fibroblasts [3]): U | Stimulates Migration (cell migration): U | Suppresses inflammation [4]: U | Promotes neurite outgrowth (neurite outgrowth): U | Protects from cytotoxicity (human dermal fibroblasts [8]): U | Inhibits NFkB translocation [10]: U

Substance: H-SDKPDMAEIEKFDKSKLKKTETQ-OH [Fragment Ba]
Inhibits collagens (human dermal fibroblasts [1]): U | Inhibits apoptosis (human dermal Fb): U | Stimulates collagen IV [9]: U | Stimulates L1 production (L1): U | Inhibits tissue damage caused by UV radiation [2]: U | Protects tissue from UV radiation damage [2]: U | Promotes neuron survival (neuron survival): U | Stimulates Elastin (human dermal fibroblasts [3]): U | Stimulates Migration (cell migration): U | Suppresses inflammation [4]: U | Promotes neurite outgrowth (neurite outgrowth): U | Protects from cytotoxicity (human dermal fibroblasts [8]): U | Inhibits NFkB translocation [10]: U

Substance: Thymosin β4 [Tb4, reference compound]
Protection of dermal Fb against CHX-induced apoptosis (human dermal Fb): protect | Inhibits apoptosis (human dermal Fb): P | Restores impaired T-lymphocyte blastogenic response (T-lymphocyte): P | Suppression of TNF-a-stimulated IL8 secretion (dermal Fb): suppress | Stimulates L1 production (L1): P | Inhibits tissue damage caused by UV radiation [2]: P | Protects tissue from UV radiation damage [2]: P | Promotes neuron survival (neuron survival): P | Secretion of elastin (human dermal fibroblasts [3]; dermal Fb, 1 μg/ml once/day, 24, 48, or 72 hours): stimulate | Stimulates Elastin (human dermal fibroblasts [3]): P | Stimulates Migration (cell migration): P | Suppresses inflammation [4]: P | Protection of gingival Fb against CHX-induced apoptosis [7]: protect | Promotes neurite outgrowth (neurite outgrowth): P | Protection of Fb against the cytotoxic effects of CHX (LDH) (human dermal fibroblasts [8]; [11]): protect | Protection of Fb against the cytotoxic effects of CHX (LDH) (human dermal fibroblasts [8]; [12]): protect | Protects from cytotoxicity (human dermal fibroblasts [8]): P | Inhibits NFkB translocation [10]: P | Suppression of TNF-a-stimulated IL8 secretion [5]: suppress
